Experimental findings from patent US20250041313A1, “COMBINATION THERAPY FOR TREATMENT OF CANCER” (CITY OF HOPE, priority 2023, published 2025) are described below.

Holding throughout (assay type): cell-based, human
One assay deals with H446 spheroids. In words: Spheroid LDH cytotoxicity/death assay. The following applies: 72 h. As for the experimental part:
(§1) SBC3 and H446 cells were plated at a density of 10,000 cells per well in 96-well ULA round-bottomed plates (S-Bio, Hudson, NH) and incubated for 72 h at 37° C., 5% CO2, and 95% humidity. Spheroids were transferred to low cell attachment dishes, grown for two days, and treated with drug. After treatment, spheroid samples were run with Western blot assay. For spheroid mitochondria visualization, they were stained with 250 nM MitoTracker® Red CMXRos and Hoechst from ThermoFisher Scientific (Waltham, MA) for 2 h after drug treatment. Spheroids were washed, fixated with 4% PFA, transferred into 96-well flat glass-bottom black microplate (Cellvis, Mountain View, CA), and mounted in wells.
LDH activity was measured using LDH Cytotoxicity Assay Kit following the manufacturer protocol (Thermo Fisher Scientific, Waltham, MA). Briefly, H446 and SBC3 spheroids after 72 hours of drug treatments were mixed with 10 μl 10× lysis buffer and incubated for 45 min in cell culture incubator. 50 μl of lysed cells from each sample were used to measure absorbance by plate reader (Tecan Spark 10, Salzburg, Austria). Percentage of cell cytotoxicity/death was calculated by using the following formula: […]

A further assay deals with SBC3 spheroids. Put plainly: Immunoblotting of spheroid lysates. As for the experimental part: SCLC total cell lysates were prepared using RIPA (radioimmunoprecipitation assay lysis buffer) lysis buffer. Protein concentration was determined using DC Protein Assay Kit Bio-Rad (Hercules, CA). Samples were then run on SDS-PAGE in 4-15% polyacrylamide gels and transferred onto Immobilon membranes (Millipore, MO), blocked, incubated with specific primary antibodies at 4° C. overnight, and subsequently developed with secondary antibodies. The following primary antibody were used: pan-Actin, Phospho-DRP1 (Ser^616), Phospho-DRP1 (Ser^637), Histone H2B (V^119), Phospho-Histone H2A.X (Ser^139), Phospho-P53 (Ser^15), P-53, Cleaved PARP (Asp^214) (D64E10), Phospho-Chk1 (Ser^345) (133D3) and p21 were from Cell Signaling Technology (City of Industry, CA), β-Actin (Sigma-Aldrich, St. Luis, MO), Phospho RNA Polymerase II (S2) antibody (Bethyl Lab, Montgomery, TX), RNA Polymerase II CTD4H8 (BioLegend, San Diego, CA), DHODH (E-8), DRP1 (C-5), GAPDH (0411), c-Myc (9E10), Tom20 (F-10), FisI (B-5), OPA1 (D-9), antibodies from Santa Cruz Biotechnology (Dallas, TX) and MFN2 (Abcam, Boston, MA) and Chk1, MDM2, Cyclin CDK4 and D1, and E2F1 (Proteintech, Rosemont, IL).
as §1

Assay [1] concerns pDRP1 (Ser616) in SBC5 cells. In words: pDRP1 Ser616 immunofluorescence staining, QuPath. As to conditions: SBC5, Teri overnight. As for the experimental part:
(§2) SBC3 and SBC5 cells were grown on glass coverslips and treated with Teri overnight. Next, cells were fixed in 4% paraformaldehyde, permeabilized, and blocked before incubating with pDRP1 (Ser^616) antibody followed by Alexa 488 secondary antibody. This was followed by staining with Tom20 (F-10) antibody. A far-red dye was used for cytoplasmic staining. Fluorescent images were acquired on an Axio Observer 7 inverted microscope (Carl Zeiss, Jena, Germany). Nuclei and DRP1 were stained with DAPI and Alexa 488 secondary antibody. All imaging was performed using a 40×/0.95 NA Plan-Apochromat objective with a final per pixel scaling of 0.147 by 0.147 microns. Within each 3×3 field of image view (>200 cells per image), QuPath 0.2.0M9 was used to detect cell nuclei, a cytoplasmic area around the nucleus was expanded for analysis, followed by limiting the area of that blind expansion based on the presence of the cytoplasmic dye. […] The mean pDRP1 signal intensity was then measured within that area. The green intensity sum of these areas was calculated per cell and then averaged for each sample image.
(§3) Additionally, SBC3 and SBC5 cells were stained with pDRP1 Ser^616 antibody (2° ab Alexa488), and the phosphorylation level was analyzed with QuPath 0.2.0M9 software.

Assay [2] relates to pDRP1 (Ser616) in SBC3 cells. In words: pDRP1 Ser616 immunofluorescence staining, QuPath. The following applies: SBC3, Teri overnight. As for the experimental part: as §2, §3

Regarding `COc1ccc2[nH]c3c(c2c1)CCN[C@]31CS[C@@H]2c3c(OC(C)=O)c(C)c4c(c3[C@H](COC1=O)N1[C@@H]2[C@H]2c3c(cc(C)c(OC)c3O)C[C@@H]([C@@H]1O)N2C)OCO4` [Lurbinectedin, lurbinectedin], the “percentage of dead cells” value with H446 spheroids is given as “significantly increased”. In the assay with SBC3 spheroids, the p21 level entry is “upregulated”.
With `C/C(O)=C(\C#N)C(=O)Nc1ccc(C(F)(F)F)cc1` [Teriflunomide, teriflunomide], the “pDRP1 Ser616 green IF signal intensity” value in assay [1] and in assay [2] was “significant signal intensity decreased” each time.
